# From PMC4513247 (Molecular pharmacology, 2010)
# Read-outs that look alike come from different tables or passages of the source.
# Key:
# NCCc1c[nH]c2ccc(O)cc12 = assay: cells, lysate or membranes; details: other: SERT^WT; [3H]5-HT saturation uptake, HEK293 cells
# DAT [1] = molecular target: T1, DAT (Homo sapiens, UniProt Q01959); assay type: binding; details: ~10 nM [3H]WIN35,428, fixed concentrations of carbamazepine
# SERT^WT = SERT^WT (Homo sapiens, UniProt P31645); assay type: binding
# DAT [2] = molecular target: T1, DAT; details: DAT versus SERT; no reference given; cited from earlier work
# NET = NET versus SERT; no reference given; cited from earlier work
# [3] = SERT, ~2 nM [3H]imipramine, fixed concentrations of carbamazepine
# Sequence of SERT^WT (P31645 whole entry): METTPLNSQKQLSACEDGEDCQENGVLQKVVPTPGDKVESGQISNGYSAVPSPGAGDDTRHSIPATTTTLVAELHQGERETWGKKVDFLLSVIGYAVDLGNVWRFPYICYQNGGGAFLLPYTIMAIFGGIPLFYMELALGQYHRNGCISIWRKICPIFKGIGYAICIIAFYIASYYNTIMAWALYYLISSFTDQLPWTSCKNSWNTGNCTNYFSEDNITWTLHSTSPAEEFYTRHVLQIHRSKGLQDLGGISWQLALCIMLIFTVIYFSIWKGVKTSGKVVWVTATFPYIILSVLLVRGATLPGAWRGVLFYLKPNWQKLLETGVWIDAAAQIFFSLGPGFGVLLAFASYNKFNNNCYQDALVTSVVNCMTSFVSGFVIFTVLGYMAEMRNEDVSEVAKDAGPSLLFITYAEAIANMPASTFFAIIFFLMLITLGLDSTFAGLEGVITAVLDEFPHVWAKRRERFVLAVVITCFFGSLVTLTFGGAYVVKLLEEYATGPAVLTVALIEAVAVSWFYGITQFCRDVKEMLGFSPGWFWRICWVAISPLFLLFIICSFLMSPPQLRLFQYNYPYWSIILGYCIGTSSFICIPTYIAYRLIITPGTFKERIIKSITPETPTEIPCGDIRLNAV
# T1 sequence (Q01959 whole entry, species assumed): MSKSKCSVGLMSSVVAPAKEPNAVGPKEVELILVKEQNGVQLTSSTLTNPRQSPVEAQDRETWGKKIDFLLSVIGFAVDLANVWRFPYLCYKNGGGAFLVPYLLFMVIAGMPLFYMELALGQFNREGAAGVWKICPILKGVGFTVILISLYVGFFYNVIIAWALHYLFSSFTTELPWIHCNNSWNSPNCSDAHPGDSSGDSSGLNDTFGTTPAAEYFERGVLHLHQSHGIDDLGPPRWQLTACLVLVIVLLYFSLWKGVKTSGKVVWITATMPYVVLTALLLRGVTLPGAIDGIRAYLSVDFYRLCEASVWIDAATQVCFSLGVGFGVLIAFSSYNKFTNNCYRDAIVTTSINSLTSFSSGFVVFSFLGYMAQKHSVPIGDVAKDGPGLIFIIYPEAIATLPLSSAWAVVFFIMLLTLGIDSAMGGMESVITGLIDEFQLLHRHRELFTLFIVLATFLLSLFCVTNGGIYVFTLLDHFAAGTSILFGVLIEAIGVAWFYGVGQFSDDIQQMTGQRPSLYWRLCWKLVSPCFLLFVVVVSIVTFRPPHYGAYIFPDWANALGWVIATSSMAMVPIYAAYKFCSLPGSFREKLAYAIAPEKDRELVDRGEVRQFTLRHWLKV
molecule,measurement,setting,value
SERT^WT (Homo sapiens),Km,NCCc1c[nH]c2ccc(O)cc12,1.2 ± 0.8 µM
ibogaine,"binding together with carbamazepine (Dixon plot of [3H]WIN35,428 binding)",DAT [1],intersected
same,binding together with carbamazepine (Dixon plot of [3H]imipramine binding),SERT^WT; [3],intersected
CN(C)CCCN1c2ccccc2CCc2ccccc21 [imipramine],affinity lower than for SERT,DAT [2],~1000 fold
same,affinity lower than for SERT,NET,approximately 10 fold
"CN[C@@H](C)Cc1ccc2c(c1)OCO2 [MDMA, s-(+)-3,4-methylenedioxy-methamphetamine]",binding together with carbamazepine (Dixon plot of [3H]imipramine binding),SERT^WT,mutually exclusive
CC(N)Cc1ccc(Cl)cc1 (stereo not shown) [para-chloroamphetamine],binding together with carbamazepine (Dixon plot of [3H]imipramine binding),SERT^WT; [3],mutually exclusive
